# Assays:
# proteinase K = test: in vitro; conditions: proteinase K in PBS, pH 7.2
# Experimental: Chromatographic analyses were performed using an ODS-C8 column (5 μm, 100 mm × 2.0 mm ID) kept at ambient temperature. The mobile phase was composed of acetonitrile-water-formic acid in the ratio of 50:50:0.1 (v/v/v) at a flow rate of 0.3 mL/min. The sample injection volume was 10 μL. Acetonitrile was HPLC grade and other chemical reagents and solvents were analytical grade. A Thermo TSQ Quantum Discovery MAX triple-quadruple tandem mass spectrometer equipped with ESI source (San Jose, CA) and Surveyor LC pump were used for LC-MS analysis. Data acquisition and data processing were performed by using Xcalibur software and LCQuan 2.0 data analysis program (Thermo Finnigan), respectively. Optimized MS parameters were as below: 4800 V spray voltage, 40.0 psi sheath gas pressure, 1.0 psi auxiliary valve flow and 300 °C of capillary temperature. When running collision-induced dissociation (CID), the pressure was set to 1.5 mTorr.
# The peptides (10 μg/mL) were prepared in PBS pH 7.2 containing 20 ng/ml proteinase K. The resulting mixture were incubated at 37 °C in a water bath and taken out at different time intervals (0, 5, 15, 30, 60, 120 minutes), followed by quenching the samples with ethyl alcohol and quantitating the peptides by LC-MS analysis as described above.
# [1] = cited from earlier work
# [2] = subcutaneously twice daily at 90 mg per dose; cited from earlier work
# [3] = intravenous 1 mg/kg, male SD rats, n = 2; plasma by sandwich ELISA; PK Solver
# Experimental: (§1) Four male SD rats weighing approximately 200 g each were obtained from the Shanghai Medical School Animal Center and were used for the half-life assay. […] After injection, blood samples were acquired from rat orbit at several time points (8 and 30 min and 1.5, 3, 6, 9, 12 and 24 h after peptide injection) and placed in clean tubes. […] Then, HRP-labeled rabbit-anti-mouse IgG (Sigma, USA) and TMB were added in order. Absorbance at 450 nm was determined by an ELISA reader (Ultra 384, Tecan). The standard peptide parameters were obtained first. Then, the plasma peptide concentrations were determined as a function of time and the half-life was calculated by using PK Solver for Microsoft Excel to obtain pharmacokinetic parameters.
# in vivo = conditions: male, Sprague-Dawley (SD), rat, plasma, iv, 1 mg/kg
# Experimental: as §1
substance,measurement,setting,value
enfuvirtide,"remaining at 2 h, 10 μg/mL",proteinase K,29%
same,half-life in plasma,[1],about 2 h
same,injection-site reactions,[2],often causing serious injection-site reactions
same,Cmax,[3],314.80 µg/mL
same,MRT,in vivo,2.27 h
same,half-life,in vivo,1.57 h

# Reference: publication PMC4541410 (Scientific Reports, 2015)
